Experimental findings from US8003649B2 (AstraZeneca AB, priority 2007, dated 2011) are described below.

SMILES strings stand for the structures. Bounds are passed on as bounds.

The assay deals with T1, Androgen Receptor (AR) (Homo sapiens, UniProt P10275, T878A).
T1 construct: cell based immuno-fluorescence assay using the LNCaP prostate epithelial cell line; endogenous in cells; host or cells: LNCaP clone FGC (ATCC CRL-1740)
T1 sequence (P10275 1-920 T878A): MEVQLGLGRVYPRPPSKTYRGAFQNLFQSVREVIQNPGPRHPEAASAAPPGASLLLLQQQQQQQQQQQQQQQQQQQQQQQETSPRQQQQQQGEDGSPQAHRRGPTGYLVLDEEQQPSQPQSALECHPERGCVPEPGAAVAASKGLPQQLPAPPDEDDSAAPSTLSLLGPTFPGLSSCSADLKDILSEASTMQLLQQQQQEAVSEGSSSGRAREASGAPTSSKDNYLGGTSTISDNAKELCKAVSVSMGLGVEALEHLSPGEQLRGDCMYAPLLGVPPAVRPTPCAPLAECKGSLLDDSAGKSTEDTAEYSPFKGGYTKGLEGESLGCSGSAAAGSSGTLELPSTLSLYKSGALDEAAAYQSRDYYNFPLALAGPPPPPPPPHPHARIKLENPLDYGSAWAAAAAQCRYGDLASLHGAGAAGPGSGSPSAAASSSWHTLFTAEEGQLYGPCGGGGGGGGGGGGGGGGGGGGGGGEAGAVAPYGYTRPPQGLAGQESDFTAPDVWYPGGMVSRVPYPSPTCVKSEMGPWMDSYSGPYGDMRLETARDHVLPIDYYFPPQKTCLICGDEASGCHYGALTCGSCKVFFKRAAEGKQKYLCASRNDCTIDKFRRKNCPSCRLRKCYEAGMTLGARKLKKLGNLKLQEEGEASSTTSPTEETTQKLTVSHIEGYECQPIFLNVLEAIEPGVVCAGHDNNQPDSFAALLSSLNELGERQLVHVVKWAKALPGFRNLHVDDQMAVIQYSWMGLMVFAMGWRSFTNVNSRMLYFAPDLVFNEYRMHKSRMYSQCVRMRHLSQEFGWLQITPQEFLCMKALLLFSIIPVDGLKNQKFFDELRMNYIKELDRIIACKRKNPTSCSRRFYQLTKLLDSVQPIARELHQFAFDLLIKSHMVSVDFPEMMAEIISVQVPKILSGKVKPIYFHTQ
In words: LNCaP Androgen Receptor Down-regulation Cell Assay (immunofluorescence end point). The class given is cell-based. To be noted: LNCaP prostate carcinoma cells, compound incubation 20-22 hours, 50% reduction of the AR signal; read-out: Androgen Receptor Down-regulation Assay (a) IC50/μM. In a few lines: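 AR loss reported as IC50 from curve fits of fluorescence dose-response data, with AR immunostained and read by laser-scanning cytometry. Compound exposure was 20-22 h at 37° C in LNCaP cells grown in 5% charcoal-stripped FBS and plated overnight beforehand.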
Turning to `Fc1cc(F)cc(CN2CCN(c3ccc4nnc(C(F)F)n4n3)CC2)c1` [Example 251], the DC50 was found to be 9.3 µM.

With `FC(F)(F)c1ccc(O[C@@H]2CCN(c3ccc4nnc(C(F)(F)F)n4n3)C2)cc1` [Example 579], the DC50 worked out at 4.1 µM.

As to `Fc1cccc(OCC2CN(c3ccc4nnc(C(F)(F)F)n4n3)C2)c1` [Example 490], the DC50 worked out at 5.9 µM.

`FC(F)(F)c1nnc2ccc(N3CCN(Cc4ccc(-c5ccccn5)cc4)CC3)nn12` [Example 134, 6-[4-[(4-pyridin-2-ylphenyl)methyl]piperazin-1-yl]-3-(trifluoromethyl)-[1,2,4]triazolo[4,3-b]pyridazine]: the DC50 was found to be 1.8 µM.

Consider `CN(C)CCCOc1cccc(OC2CCN(c3ccc4nnc(C(F)(F)F)n4n3)CC2)c1` [Example 443], for which the DC50 is 1.5 µM.

In the case of `CN1CCN(CCNC(=O)c2cccc(OC3CCN(c4ccc5nnc(C(F)(F)F)n5n4)CC3)c2)CC1` [Example 704], the DC50 came out at 4.2 µM.

Take `FC(F)(F)c1nnc2ccc(N3CCN(Cc4nc5ccccc5s4)CC3)nn12` [Example 48, 6-[4-(1,3-benzothiazol-2-ylmethyl)piperazin-1-yl]-3-(trifluoromethyl)-[1,2,4]triazolo[4,3-b]pyridazine]: the DC50 worked out at 1.5 µM.

Take `FC(F)(F)c1nnc2ccc(N3CCC(c4ccc(OCCn5ccnc5)cc4)CC3)nn12` [Example 846, 6-[4-[4-[2-(1H-imidazol-1-yl)ethoxy]phenyl]piperidin-1-yl]-3-(trifluoromethyl)[1,2,4]triazolo[4,3-b]pyridazine]: the DC50 stood at 0.27 µM.

Consider `FC(F)(F)c1nnc2ccc(N3CC4CN(Cc5ccc(Cl)nc5)CC4C3)nn12` (centres unmarked) [Example 791], for which the DC50 was determined as 0.96 µM.

Regarding `Cn1cncc1CN1CCN(c2ccc3nnc(C(F)(F)F)n3n2)CC1` [Example 89, 6-[4-[(3-methylimidazol-4-yl)methyl]piperazin-1-yl]-3-(trifluoromethyl)-[1,2,4]triazolo[4,3-b]pyridazine], the DC50 is 23 µM.

For the compound `CN(C)CCCOc1ccc(CN2CCN(c3ccc4nnc(C(F)(F)F)n4n3)CC2)cc1` [Example 112, N,N-dimethyl-3-[4-[[4-[3-(trifluoromethyl)-[1,2,4]triazolo[4,3-b]pyridazin-6-yl]piperazin-1-yl]methyl]phenoxy]propan-1-amine], the DC50 worked out at 4.7 µM.

Take `FC(F)(Cl)c1nnc2ccc(N3CCN(Cc4ccc(Br)cc4)CC3)nn12` [Example 348]: the DC50 stood at 1 µM.

With `FC(F)(F)c1nnc2ccc(N3CCCC(COc4ccccc4)C3)nn12` (centres unmarked) [Example 516, 6-[3-(Phenoxymethyl)piperidin-1-yl]-3-(trifluoromethyl)[1,2,4]triazolo[4,3-b]pyridazine], the DC50 was found to be 1.4 µM.

Take `C[C@@H]1CN(c2ccc3nnc(C(F)(F)F)n3n2)CCN1Cc1cc(F)cc(F)c1` [Example 567]: the DC50 is over 16 µM.

Take `FC(F)(F)c1nnc2ccc(N3CCN(c4ccc(OCCN5CCCC5)cc4)CC3)nn12` [Example 755]: the DC50 was found to be 2.2 µM.

With `O=C(NCCN1CCOCC1)c1ccc(OC2CCN(c3ccc4nnc(C(F)(F)F)n4n3)CC2)cc1` [Example 424], the DC50 was determined as 2.2 µM.

As to `C[C@H]1CN(Cc2cncc(F)c2)CCN1c1ccc2nnc(C(F)(F)F)n2n1` [Example 366], the DC50 was over 33 µM.

For `C[C@@H]1CN(c2ccc3nnc(C(F)(F)F)n3n2)CCN1Cc1ccc(C#N)cc1` [Example 565], the DC50 amounted to 3.5 µM.

On to `Fc1ccc(F)c(CN2CCN(c3ccc4nnc(C(F)(F)F)n4n3)CC2)c1F` [Example 764], for which the DC50 is 2.5 µM.

For the compound `Fc1ccc(C(F)F)c(CN2CCN(c3ccc4nnc(C(F)F)n4n3)CC2)c1` [Example 780, 3-(difluoromethyl)-6-[4-[2-(difluoromethyl)-5-fluorobenzyl]piperazin-1-yl][1,2,4]triazolo[4,3-b]pyridazine], the DC50 was 0.51 µM.

On to `FC(F)(F)c1cnc(N2CCCN(c3ccc4nnc(C(F)(F)F)n4n3)CC2)c(Cl)c1` [Example 30, 6-[4-[3-chloro-5-(trifluoromethyl)pyridin-2-yl]-1,4-diazepan-1-yl]-3-(trifluoromethyl)-[1,2,4]triazolo[4,3-b]pyridazine], for which the DC50 is 0.38 µM.

Take `COc1ccc(CN2CC3CN(c4ccc5nnc(C(F)(F)F)n5n4)CC3C2)cn1` (centres unmarked) [Example 793]: the DC50 is 1.6 µM.

On to `COCCNC(=O)c1ccc2[nH]cc(C3CCN(c4ccc5nnc(C(F)(F)F)n5n4)CC3)c2c1` [Example 498], for which the DC50 is 2.4 µM.

On to `O=C(c1ccc(OC2CCN(c3ccc4nnc(C(F)(F)F)n4n3)CC2)cc1)N1CCOCC1` [Example 420], for which the DC50 is 5.9 µM.

Turning to `C[C@@H]1CN(c2ccc3nnc(C(F)(F)F)n3n2)CCN1Cc1cccnc1` [Example 564, 6-[(3R)-3-methyl-4-(pyridin-3-ylmethyl)piperazin-1-yl]-3-(trifluoromethyl)[1,2,4]triazolo[4,3-b]pyridazine], the DC50 amounted to 6.7 µM.

For the compound `Fc1ccc2c(CN3CCN(c4ccc5nnc(C(F)F)n5n4)CC3)c[nH]c2c1` [Example 292], the DC50 is 7 µM.

As to `FC(F)(F)c1nnc2ccc(N3CCC(Oc4ccc(OCc5cnco5)cc4)CC3)nn12` [Example 439], the DC50 came out at 0.48 µM.

Regarding `COc1ccc(F)c(CN2CCN(c3ccc4nnc(C(F)F)n4n3)CC2)c1` [Example 258], the DC50 was 6.4 µM.

On to `CC(=O)N1CCN(CCOc2ccc(C3CCN(c4ccc5nnc(C(F)(F)F)n5n4)CC3)cc2)CC1` [Example 852, 6-[4-[4-[2-(4-acetylpiperazin-1-yl)ethoxy]phenyl]piperidin-1-yl]-3-(trifluoromethyl)[1,2,4]triazolo[4,3-b]pyridazine], for which the DC50 was found to be 0.29 µM.

As to `C[C@@H]1CN(c2ccc3nnc(C(F)(F)F)n3n2)CCN1Cc1cccc(Br)n1` [Example 830], the DC50 is 0.85 µM.

Consider `FC(F)c1nnc2ccc(N3CCN(Cc4c[nH]c5ccc(Cl)cc45)CC3)nn12` [Example 287], for which the DC50 was 2 µM.

As for `FC(F)(F)c1nnc2ccc(N3CCN(Cc4ccoc4)CC3)nn12` [Example 90, 6-[4-(furan-3-ylmethyl)piperazin-1-yl]-3-(trifluoromethyl)-[1,2,4]triazolo[4,3-b]pyridazine], the DC50 amounted to 3.2 µM.

For `O=S(=O)(c1ccccc1F)N1CCCN(c2ccc3nnc(C(F)(F)F)n3n2)CC1` [Example 460], the DC50 turned out to be 5.1 µM.

As to `COc1ccc(F)c(CN2CCN(c3ccc4nnc(C(F)(F)F)n4n3)CC2)c1` [Example 390], the DC50 turned out to be 1.7 µM.

Regarding `N#Cc1ccc(S(=O)(=O)N2CCN(c3ccc4nnc(C(F)(F)F)n4n3)CC2)cc1` [Example 857, 4-[4-[3-(trifluoromethyl)-[1,2,4]triazolo[3,4-f]pyridazin-6-yl]piperazin-1-yl]sulfonylbenzonitrile], the DC50 was over 33 µM.

For the compound `FC(F)(F)c1nnc2ccc(N3CCN(Cc4cccc(Br)c4)CC3)nn12` [Example 118, 6-[4-[(3-bromophenyl)methyl]piperazin-1-yl]-3-(trifluoromethyl)-[1,2,4]triazolo[4,3-b]pyridazine], the DC50 is 0.3 µM.

As for `O=C(NCCN1CCCC1)c1ccc(OC2CCN(c3ccc4nnc(C(F)(F)F)n4n3)CC2)cc1` [Example 413], the DC50 amounted to 1.9 µM.

Turning to `Fc1ccc2c(CN3CCN(c4ccc5nnc(C(F)(F)F)n5n4)CC3)c[nH]c2c1` [Example 284], the DC50 was 0.98 µM.

For the compound `OCCOc1cccc(C2CCN(c3ccc4nnc(C(F)(F)F)n4n3)CC2)c1` [Example 737, 2-[3-[1-[3-(trifluoromethyl)[1,2,4]triazolo[4,3-b]pyridazin-6-yl]piperidin-4-yl]phenoxy]ethanol], the DC50 was determined as 0.74 µM.

As to `FC(F)c1nnc2ccc(N3CCC(c4c[nH]c5ccccc45)CC3)nn12` [Example 266, 3-(difluoromethyl)-6-[4-(1H-indol-3-yl)piperidin-1-yl][1,2,4]triazolo[4,3-b]pyridazine], the DC50 was 0.63 µM.

Turning to `COc1cncc(CN2CC3CN(c4ccc5nnc(C(F)(F)F)n5n4)CC3C2)c1` (centres unmarked) [Example 797], the DC50 is 2.4 µM.

As to `CN1CCC(Oc2cccc(C3CCN(c4ccc5nnc(C(F)(F)F)n5n4)CC3)c2)CC1` [Example 677], the DC50 was found to be 4.5 µM.

As for `FC(F)(F)c1cccc(OC2CCN(c3ccc4nnc(C(F)(F)F)n4n3)CC2)c1` [Example 626], the DC50 came to 1.1 µM.

As for `Fc1ccc(CN2CCN(c3ccc4nnc(C(F)(F)F)n4c3)CC2)cc1` [Example 191, 6-[4-[(4-fluorophenyl)methyl]piperazin-1-yl]-3-(trifluoromethyl)-[1,2,4]triazolo[4,3-a]pyridine], the DC50 was found to be 2.1 µM.
